Where two headings read alike, the source gives them in different places.
Tests used:
[1] = tested on: primed CD8^+ T cells (PBMCs from HLA-A2 donors); format: cell-based, human
HLA-A2 = target: T1, HLA-A2 (Homo sapiens, UniProt P04439, D140Y/D185E/D98H/E176V/E277Q/G131W/G231S/I119V/I121R/I166T/I218V/L300P/L318F/N151K/N90K/P208A/P217A/Q86G/Q94H/R138H/R169H/T345S); assay: HLA–peptide binding assay (surface stabilization of HLA-A2 on T2 cells); details: differences especially at 10^−5 M and 10^−6 M
T1 construct: T2 cells, a lymphoma-derived line expressing low amounts of HLA-A2; endogenous in cells; host or cells: T2 cells

[2] = old donors (65–69 years, n = 8), peptide 1 μM, day 10 after priming, 24 h ELISpot, positive above 50 SFUs per 10^6 cells

Sequence | IFN-γ responses in old donors [1, 2] | Relative affinity for HLA-A2 (binding hierarchy among the peptides) (HLA-A2) | IFN-γ responses in old donors [1]
KIADYNYKL [HLA-A2-restricted SARS-CoV-2 spike-derived peptide, residues 417–425] | no responses | – | –
LLYDANYFL [HLA-A2-restricted SARS-CoV-2 peptide from ORF3a, residues 139–147] | limited to a single donor | – | –
MLDMYSVML [HLA-A2-restricted SARS-CoV-2 peptide from RdRpol, residues 5291–5299] | limited to a single donor | – | –
TLDSKTQSL [HLA-A2-restricted SARS-CoV-2 spike-derived peptide, residues 109–117] | no responses | lowest relative affinities | –
HLVDFQVTI [HLA-A2-restricted SARS-CoV-2 peptide from ORF6, residues 3–11] | – | – | limited to a single donor
SLVKPSFYV [HLA-A2-restricted SARS-CoV-2 peptide from protein E, residues 50–58] | limited to a single donor | – | –
YLQPRTFLL [HLA-A2-restricted SARS-CoV-2 spike-derived peptide, residues 269–277] | – | lowest relative affinities | –
